Tests used:
COLO-679 (Melanoma) = test: Bliss excess, mean over the matrix (fraction); higher = more synergy
How it was run: (§1)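 Bliss excess equals the observed combination effect minus the expected value EA + EB − EA·EB, where EA and EB are the effects of each agent alone. Combination Emax is the second-highest inhibition within the matrix. Inhibition was scaled from CellTiter-Glo 2.0 luminescence, with 0 set by vehicle wells and 1 by blank wells, after 72 hours of two-drug dosing of cells plated in 1536-well plates.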

[1] = system: Ca-Ski (Cervical Carcinoma); test: as above
How it was run: as §1

[2] = system: HAL-01 (B-Lymphoblastic Leukemia); test: as above
How it was run: as §1

[3] = system: HCC1500 (Breast Carcinoma); test: as above
How it was run: as §1

[4] = system: HCC1937 (Breast Carcinoma); test: as above
How it was run: as §1

[5] = system: HCC2998 (Colorectal Carcinoma); test: as above
How it was run: as §1

[6] = system: KGN (Other Solid Carcinomas); test: as above
How it was run: as §1

[7] = system: KMRC-1 (Kidney Carcinoma); test: as above
How it was run: as §1

[8] = system: ML-2 (Acute Myeloid Leukemia); test: as above
How it was run: as §1

[9] = system: MOLT-4 (T-Lymphoblastic Leukemia); test: as above
How it was run: as §1

[10] = system: MV-4-11 (Acute Myeloid Leukemia); test: as above
How it was run: as §1

[11] = system: Mo-T (Other Blood Carcinomas); test: as above
How it was run: as §1

[12] = system: NCI-H1092 (Small Cell Lung Carcinoma); test: as above
How it was run: as §1

[13] = system: NCI-H1838 (Lung Adenocarcinoma); test: as above
How it was run: as §1

[14] = system: OE33 (Esophageal Adenocarcinoma); test: as above
How it was run: as §1

SK-N-AS (Neuroblastoma) = test: as above
How it was run: as §1

[15] = system: SW872 (Other Solid Carcinomas); test: as above
How it was run: as §1

[16] = system: SW982 (Other Solid Carcinomas); test: as above
How it was run: as §1

[17] = system: Ca-Ski (Cervical Carcinoma); test: combination Emax (second highest fraction inhibited in the dose matrix, 72 h); higher = more inhibition; extreme values may be limits of the assay
How it was run: as §1

[18] = system: HCC1937 (Breast Carcinoma); test: as above
How it was run: as §1

Structure (SMILES)	Bliss excess (COLO-679 (Melanoma))	Bliss excess [1]	Bliss excess [2]	Bliss excess [3]	Bliss excess [4]	Bliss excess [5]	Bliss excess [6]	Bliss excess [7]	Bliss excess [8]	Bliss excess [9]	Bliss excess [10]	Bliss excess [11]	Bliss excess [12]	Bliss excess [13]	Bliss excess [14]	Bliss excess (SK-N-AS (Neuroblastoma))	Bliss excess [15]	Bliss excess [16]	combination Emax [17]	combination Emax [18]
CC1(C)CCC(CN2CCN(c3ccc(C(=O)NS(=O)(=O)c4ccc(NCC5CCOCC5)c([N+](=O)[O-])c4)c(Oc4cnc5[nH]ccc5c4)c3)CC2)=C(c2ccc(Cl)cc2)C1 [Venetoclax] + C=CCn1c(=O)c2cnc(Nc3ccc(N4CCN(C)CC4)cc3)nc2n1-c1cccc(C(C)(C)O)n1 [AZD1775] (first compound max 1 µM, partner max 1 µM)	-0.053	0.0449	0.0564	0.114	-0.0744	-0.0423	0.0003	-0.0126	-0.0553	0.117	-0.072	-0.0213	0.0018	-0.0334	-0.0144	-0.07	0.005	0.018	0.836	0.406
CC1(C)CCC(CN2CCN(c3ccc(C(=O)NS(=O)(=O)c4ccc(NCC5CCOCC5)c([N+](=O)[O-])c4)c(Oc4cnc5[nH]ccc5c4)c3)CC2)=C(c2ccc(Cl)cc2)C1 [Venetoclax] + C[C@@H](Nc1cc(F)cc(F)c1)c1cc(C(=O)N(C)C)cc2c(=O)cc(N3CCOCC3)oc12 [AZD8186] (first compound max 1 µM, 7x7, partner max 3 µM)	0.0001	-0.0259	0.0246	0.0626	-0.0179	-0.0317	-0.0296	-0.0198	-0.0292	-0.0204	0.0641	0.0015	0.0667	-0.031	-0.0169	-0.0347	-0.0247	-0.0813	0.114	0.271
CS(=O)(=O)CCNCc1ccc(-c2ccc3ncnc(Nc4ccc(OCc5cccc(F)c5)c(Cl)c4)c3c2)o1 [Lapatinib] + C[C@@H](Oc1cc(-c2cnn(C3CCNCC3)c2)cnc1N)c1c(Cl)ccc(F)c1Cl [Crizotinib] (first compound max 10 µM, 7x7, partner max 10 µM)	-0.066	-0.042	-0.0265	0.0412	-0.0404	-0.044	-0.0702	-0.0725	-0.0133	-0.0084	-0.0106	-0.0658	0.0103	-0.0919	0.151	-0.0676	-0.0069	-0.0579	0.969	0.674
Cc1c2c(nn1C)CSCc1cc(n(C)n1)CSc1cc(c3ccccc3c1)OCCCc1c(C(=O)O)n(C)c3c-2c(Cl)ccc13 [AZD5991] + Cc1cc2ncnn2cc1Nc1ncc2c(n1)n(C1CCOCC1)c(=O)n2C [AZD7648] (first compound max 1 µM, 7x7, partner max 10 µM)	0.0019	-0.0079	0.0227	-0.0471	-0.015	-0.0317	-0.0404	-0.0161	-0.0314	-0.0072	-0.0151	-0.08	-0.0458	-0.0929	-0.0304	-0.0554	-0.0235	-0.0232	0.331	0.362
Cc1c2c(nn1C)CSCc1cc(n(C)n1)CSc1cc(c3ccccc3c1)OCCCc1c(C(=O)O)n(C)c3c-2c(Cl)ccc13 [AZD5991] + C[C@@H]1COCCN1C2=NC(=NC(=C2)C3(CC3)[S@](=N)(=O)C)C4=C5C=CNC5=NC=C4 [AZD6738] (first compound max 1 µM, 7x7, partner max 10 µM)	0.0047	0.0267	-0.0042	0.105	0.061	0.044	0.0182	0.0201	-0.0999	0.0318	0.0008	0.0152	0.0651	-0.0021	-0.0688	-0.0034	0.0323	-0.0086	0.717	0.557
CN(C)CCCOc1ccc(-c2ccc3ncc4c(c3c2)n(C2CCOCC2)c(=O)n4C)cn1 [AZD0156] + C[C@@H]1COCCN1C2=NC(=NC(=C2)C3(CC3)[S@](=N)(=O)C)C4=C5C=CNC5=NC=C4 [AZD6738] (first compound max 1 µM, 7x7, partner max 10 µM)	0.0164	-0.0036	-0.0648	-0.0112	-0.0386	0.0637	-0.0172	-0.0496	-0.0248	0.0033	-0.06	-0.0382	-0.0427	-0.0082	-0.0451	-0.0108	0.0187	-0.0507	0.668	0.543
COc1nnc2ccc(N3CCC(c4ccc(OCCN5CCN(C)C(=O)[C@H]5C)cc4)CC3)nn12 [AZD5153] + C[C@@H]1COCCN1C2=NC(=NC(=C2)C3(CC3)[S@](=N)(=O)C)C4=C5C=CNC5=NC=C4 [AZD6738] (first compound max 1 µM, 7x7, partner max 10 µM)	0.0003	0.0406	-0.0737	0.0792	-0.0516	0.0607	-0.0865	0.0195	-0.0116	0.0394	0.0009	-0.0184	0.0493	0.0023	-0.0427	0.002	-0.0383	-0.0392	0.794	0.434
Cn1cnc2c(F)c(Nc3ccc(Br)cc3Cl)c(C(=O)NOCCO)cc21 [Selumetinib] + C[C@@H]1COCCN1C2=NC(=NC(=C2)C3(CC3)[S@](=N)(=O)C)C4=C5C=CNC5=NC=C4 [AZD6738] (first compound max 10 µM, 7x7, partner max 10 µM)	-0.0526	0.0396	-0.0541	-0.0346	0.0414	0.0464	-0.0817	-0.0303	-0.0373	-0.0181	-0.0369	-0.0055	-0.0466	-0.101	-0.018	-0.0048	0.0211	-0.0499	0.638	0.421
NC1(C(=O)N[C@@H](CCO)c2ccc(Cl)cc2)CCN(c2ncnc3[nH]ccc23)CC1 [Capivasertib] + CCN(CCO)CCCOc1ccc2c(Nc3cc(CC(=O)Nc4cccc(F)c4)[nH]n3)ncnc2c1 [AZD2811] (first compound max 10 µM, 7x7, partner max 1 µM)	-0.2	0.0121	-0.0779	0.0228	0.0005	-0.0095	-0.0623	-0.0421	-0.0094	-0.0189	-0.0436	-0.0703	-0.0137	-0.0356	-0.0137	0.0008	-0.0384	0.0184	0.465	0.481
CC(=O)Nc1cccc(-n2c(=O)n(C3CC3)c(=O)c3c(Nc4ccc(I)cc4F)n(C)c(=O)c(C)c32)c1 [Trametinib] + Cc1nc(-c2cn3c(n2)-c2ccc(-c4cnn(C(C)(C)C(N)=O)c4)cc2OCC3)n(C(C)C)n1 [Taselisib] (first compound max 1 µM, 7x7, partner max 10 µM)	-0.0331	0.184	0.147	0.0452	-0.0125	0.0408	0.0972	0.0072	0.197	0.186	0.27	0.142	-0.0174	0.0104	0.17	0.0104	0.0847	0.0666	0.816	0.722
CC1(C)CCC(CN2CCN(c3ccc(C(=O)NS(=O)(=O)c4ccc(NCC5CCOCC5)c([N+](=O)[O-])c4)c(Oc4cnc5[nH]ccc5c4)c3)CC2)=C(c2ccc(Cl)cc2)C1 [Venetoclax] + CN(C)CCCOc1ccc(-c2ccc3ncc4c(c3c2)n(C2CCOCC2)c(=O)n4C)cn1 [AZD0156] (first compound max 1 µM, 7x7, partner max 1 µM)	-0.0328	0.0221	0.0439	0.0766	-0.0566	-0.0292	-0.0172	-0.0466	-0.0728	0.0196	-0.0446	-0.0469	-0.0023	0.0303	-0.033	-0.0469	0.0025	-0.086	0.369	0.283
Cc1c2c(nn1C)CSCc1cc(n(C)n1)CSc1cc(c3ccccc3c1)OCCCc1c(C(=O)O)n(C)c3c-2c(Cl)ccc13 [AZD5991] + C=CCn1c(=O)c2cnc(Nc3ccc(N4CCN(C)CC4)cc3)nc2n1-c1cccc(C(C)(C)O)n1 [AZD1775] (first compound max 1 µM, partner max 1 µM)	0.0628	-0.0012	-0.0197	0.0305	-0.0157	0.0142	-0.002	0.0071	-0.0342	-0.0043	-0.0407	0.0127	-0.048	0.0159	-0.023	-0.066	0.0634	-0.0549	0.816	0.617
CCc1c2c(nc3ccc(O)cc13)-c1cc3c(c(=O)n1C2)COC(=O)[C@]3(O)CC [SN-38] + CN(C)CCCOc1ccc(-c2ccc3ncc4c(c3c2)n(C2CCOCC2)c(=O)n4C)cn1 [AZD0156] (first compound max 0.3 µM, 7x7, partner max 1 µM)	-0.0767	0.0459	0.0451	0.0076	0.0605	0.253	-0.0065	0.0671	0.0256	0.069	0.0414	-0.0527	-0.0472	-0.0741	0.0575	-0.0061	0.0048	-0.0208	0.99	0.487
CCN(CCO)CCCOc1ccc2c(Nc3cc(CC(=O)Nc4cccc(F)c4)[nH]n3)ncnc2c1 [AZD2811] + C=CCn1c(=O)c2cnc(Nc3ccc(N4CCN(C)CC4)cc3)nc2n1-c1cccc(C(C)(C)O)n1 [AZD1775] (first compound max 1 µM, partner max 1 µM)	-0.0325	0.0123	0.0495	-0.0098	-0.0331	-0.0014	-0.0196	0.0036	-0.102	0.0151	-0.0626	-0.0252	-0.0183	-0.0575	0.0006	0.0108	0.0203	-0.0501	0.697	0.471

Reference: the supplement of paper PMC11061612
